Data reported in patent publication US20210246115A1 (Bioimics AB, priority 2017, published 2021).
Structures can show the parent of a compound that is named as a salt. Where two headings read alike, the source gives them in different places.

What was measured:
[1] = test system: E. faecium ATCC 700221; experiment: MIC, E. faecium ATCC 700221; type: cell-based; conditions: Enterococcus faecium
[2] = test system: S. pneumoniae ATCC 49619; experiment: MIC, S. pneumoniae ATCC 49619; type: cell-based; conditions: Streptococcus pneumoniae, ATCC49619; Table XIV A. Gram-positive bacteria
[3] = test system: Enterococcus faecalis (ATCC29212); experiment: MIC, broth microdilution (CLSI), Enterococcus faecalis; type: cell-based
[4] = test system: Escherichia coli (ATCC25922); experiment: MIC, broth microdilution (CLSI), Escherichia coli; conditions: Escherichia coli
Description: Initial minimal inhibitory concentration (MIC) tests were made on two bacterial strains: • Escherichia coli (ATCC25922) • Staphylococcus aureus (ATCC25923).
MIC values were determined using the standard broth microdilution procedure based on the guidelines by the Clinical and Laboratory Standards Institute (CLSI). Briefly, the compounds were dissolved in DMSO to 10 mM. They were diluted in cation-adjusted Mueller-Hinton broth (CAMHB) to four times the highest concentration tested. A serial two-fold dilution in CAMHB was done in microdilution plates. The inoculum of bacterial strain to be tested was prepared by making a suspension of colonies from an 18 to 24 hours old plate in CAMHB. The inoculum was diluted so that, after inoculation, each well contained approximately 5×10^5 CFU/mL. To a volume of 50 μl compound in CA 3 an equal volume of inoculum was added. The tray was sealed in a plastic bag and incubated at 35° C. for 16 to 20 hours. To aid in the detection of growth the dye resazurin was added to a final concentration 0.001% and incubated at room temperature for 1 h. Reduction of resazurin, and therefore bacterial growth, was seen as a change from blue to pink.

[5] = test system: E. coli JW5503 (efflux defective); experiment: MIC, E. coli JW5503 (efflux defective); type: cell-based; conditions: Escherichia coli, read-out: E. coli JW5503 (efflux defective) MIC
[6] = test system: Pseudomonas aeruginosa (ATCC27853); experiment: MIC, broth microdilution (CLSI), Pseudomonas aeruginosa; type: cell-based
[7] = test system: N. gonorrhoeae ATCC 700825; experiment: MIC, N. gonorrhoeae ATCC 700825; type: cell-based; conditions: Neisseria gonorrhoeae, ATCC700825; Table XIV B. Gram-negative bacteria
[8] = test system: Staphylococcus aureus subsp. aureus (ATCC29213); experiment: MIC, broth microdilution (CLSI), Staphylococcus aureus ATCC29213; type: cell-based; conditions: Staphylococcus aureus
[9] = test system: K. pneumoniae ATCC 43816; experiment: MIC, K. pneumoniae ATCC 43816; type: cell-based; conditions: Klebsiella pneumoniae, ATCC43816; Table XIV B. Gram-negative bacteria
[10] = test system: P. aeruginosa NTUH974 (MDR); experiment: MIC, P. aeruginosa NTUH974 (MDR); type: cell-based; conditions: Pseudomonas aeruginosa, read-out: P. aeruginosa NTUH974 (MDR) MIC
[11] = test system: Staphylococcus aureus (ATCC25923); experiment: MIC, broth microdilution (CLSI), Staphylococcus aureus ATCC25923; conditions: Staphylococcus aureus, ATCC25923, read-out: S. aureus ATCC 25923 MIC
[12] = test system: A. baumannii ATCC 17978; experiment: MIC, A. baumannii ATCC 17978; type: cell-based; conditions: Acinetobacter baumannii, ATCC17978; Table XIV B. Gram-negative bacteria
[13] = test system: E. coli RNase P RNA, M1 RNA; experiment: Inhibition of bacterial RNase P activity, IC50 determination (cleavage of pATSerUG by M1 RNA); type: biochemical; conditions: NI: No inhibition
[14] = test system: H. influenzae ATCC 49247; experiment: MIC, H. influenzae ATCC 49247; type: cell-based; conditions: Haemophilus influenzae, ATCC49247; Table XIV B. Gram-negative bacteria
[15] = test system: S. aureus MRSA ATCC 33591; experiment: MIC, S. aureus MRSA ATCC 33591; type: cell-based; conditions: Staphylococcus aureus, read-out: S. aureus MRSA ATCC 33591 MIC
[16] = ATCC700221, read-out: E. faecium ATCC 700221 MIC
[17] = ATCC29212, read-out: E. faecalis ATCC 29212 MIC
[18] = ATCC25922, read-out: E. coli ATCC 25922 MIC, Table XIII
[19] = ATCC25922, read-out: E. coli ATCC 25922 MIC, Table XIV B. Gram-negative bacteria
[20] = ATCC27853, read-out: P. aeruginosa ATCC 27853 MIC
[21] = ATCC29213, read-out: S. aureus ATCC 29213 MIC, Table XIV A. Gram-positive bacteria
[22] = ATCC700221, Table XIV A. Gram-positive bacteria, read-out: E. faecium ATCC 700221 MIC
[23] = ATCC29212, Table XIV A. Gram-positive bacteria, read-out: E. faecalis ATCC 29212 MIC
[24] = ATCC27853, Table XIV B. Gram-negative bacteria, read-out: P. aeruginosa ATCC 27853 MIC
[25] = ATCC29213, Table XIV A. Gram-positive bacteria, read-out: S. aureus ATCC 29213 MIC
[26] = Table XIV B. Gram-negative bacteria
[27] = Table XIV A. Gram-positive bacteria
[28] = ATCC29213, Table XIII, read-out: S. aureus ATCC 29213 MIC

Structure (SMILES) | MIC [2] [µg/mL] | MIC [4, 18] [µg/mL] | MIC [4, 19] [µg/mL] | MIC [5] [µg/mL] | MIC [7] [µg/mL] | MIC [9] [µg/mL] | MIC [11] [µg/mL] | MIC [12] [µg/mL] | IC50 [13] [µM] | MIC [14] [µg/mL] | MIC [1, 22] [µg/mL] | MIC [3, 23] [µg/mL] | MIC [6, 24] [µg/mL] | MIC [8, 25] [µg/mL] | MIC [10, 26] [µg/mL] | MIC [15, 27] [µg/mL] | other results
NC1CCC(NC(=O)CC(c2cccc(OC(F)(F)F)c2)c2cn(CC3CCCCC3)c3ccccc23)CC1 [Compound 143, N-((1S,4S)-4-aminocyclohexyl)-3-(1-(cyclohexylmethyl)-1H-indol-3-yl)-3-(3-(trifluoromethoxy)phenyl) propanamide hydrochloride salt] | 16 | > 512 | > 128 | 64 | 2 | > 128 | 2 | > 128 | 20 | 16 | – | – | – | – | – | – | MIC [1, 16]: 4 µg/mL; MIC [3, 17]: 4 µg/mL; MIC [6, 20]: > 128 µg/mL; MIC [8, 21]: 4 µg/mL; MIC [10]: > 128 µg/mL; MIC [15]: 16 µg/mL
Cc1cccc(C(CCNC2CCC(N)CC2)c2cn(CC34CC5CC(CC(C5)C3)C4)c3ccccc23)c1 [Compound 232, (1S,4S)-N1-(3-(1-(((1S,4S)-adamantan-1-yl)methyl)-1H-indol-3-yl)-3-(m-tolyl)propyl)cyclohexane-1,4-diamine hydrochloride salt] | 8 | 5 | 4 | 4 | 4 | 8 | 2 | 8 | 8.3 | 8 | 2 | 4 | 32 | 4 | 32 | 4 | –
Cc1cccc(CC(CC(=O)N[C@H]2CC[C@H](N)CC2)c2cn(CC3CCCCC3)c3ccccc23)c1.Cl (stereo partly drawn) [Compound 202, N-((1R,4R)-4-aminocyclohexyl)-3-(1-(cyclohexylmethyl)-1H-indol-3-yl)-4-(m-tolyl)butanamide hydrochloride salt] | 16 | 33 | 128 | 16 | 4 | 64 | 2 | 32 | 10.7 | 16 | 4 | 8 | 32 | 16 | 32 | 8 | –
Cc1ccccc1C(CCNC1CCC(N)CC1)c1cn(CC2CCCCC2)c2ccccc12 (centres unmarked) [Compound 186, N1-(3-(1-(cyclohexylmethyl)-1H-indol-3-yl)-3-(o-tolyl)propyl)cyclohexane-1,4-diamine hydrochloride salt] | 8 | 4 | 4 | 2 | 2 | 8 | 4 | 4 | 3.6 | 8 | – | – | – | – | – | – | MIC [1, 16]: 2 µg/mL; MIC [3, 17]: 4 µg/mL; MIC [6, 20]: 16 µg/mL; MIC ([8]; ATCC29213, read-out: S. aureus ATCC 29213 MIC, Table XIII): 4 µg/mL; MIC [8, 21]: 4 µg/mL; MIC [10]: 32 µg/mL; MIC [15]: 4 µg/mL
Cc1cccc(C(CCN2CCC(N)CC2)c2cn(CC3CCCCC3)c3ccccc23)c1 (centres unmarked) [Compound 216, 1-(3-(1-(cyclohexylmethyl)-1H-indol-3-yl)-3-(m-tolyl)propyl)piperidin-4-amine hydrochloride salt] | 8 | 4 | 8 | 4 | 2 | 128 | 4 | 8 | 25 | 4 | – | – | – | – | – | – | MIC [1, 16]: 2 µg/mL; MIC [3, 17]: 4 µg/mL; MIC [6, 20]: 64 µg/mL; MIC [8, 21]: 4 µg/mL; MIC [10]: 64 µg/mL; MIC [15]: 4 µg/mL
NC1CCC(NCCC(c2cccc(Cl)c2)c2cn(CC3CCCCC3)c3ccccc23)CC1 [Compound 170, (1S,4S)-N1-(3-(3-chlorophenyl)-3-(1-(cyclohexylmethyl)-1H-indol-3-yl)propyl) cyclohexane-1,4-diamine hydrochloride salt] | 8 | 4 | 4 | 2 | 2 | 8 | 2 | 4 | 16 | 4 | 2 | 2 | 16 | 2 | 32 | 4 | –
N[C@H]1CC[C@H](NCCc2cn(CC3CCCCC3)c3ccc(-c4cccc(OC(F)(F)F)c4)cc23)CC1 [Compound 274, hydrochloride salt] | 8 | 2 | 4 | 4 | 2 | 8 | 2 | 8 | 6.53 | 4 | 2 | 2 | 8 | 2 | 16 | 2 | MIC [8, 28]: 4 µg/mL
Cc1cccc(C(CCNC2CCCCC2)c2cn(CC3CCCCC3)c3ccccc23)c1.Cl (centres unmarked) [Compound 215, N-(3-(1-(cyclohexylmethyl)-1H-indol-3-yl)-3-(m-tolyl)propyl) cyclohexanamine hydrochloride salt] | 2 | > 128 | > 128 | 64 | 1 | > 128 | 2 | > 128 | – | 16 | 1 | 2 | > 128 | 2 | > 128 | > 128 | MIC [8, 28]: 2 µg/mL
NC1CCC(NCCC(c2cccc(C(F)(F)F)c2)c2cn(CC3CCCCC3)c3ccccc23)CC1 [Compound 168, (1S,4S)-N1-(3-(1-(cyclohexylmethyl)-1H-indol-3-yl)-3-(3-(trifluoromethyl)phenyl)propyl)cyclohexane-1,4-diamine hydrochloride salt] | 8 | 5 | 4 | 4 | 2 | 4 | 2 | 4 | 11 | 4 | 2 | 2 | 16 | 2 | 16 | 4 | –
Cc1cccc(C(CCNC2CCNCC2)c2cn(CC3CCCCC3)c3ccc(Br)cc23)c1.Cl (centres unmarked) [Compound 163, N-(3-(5-bromo-1-(cyclohexylmethyl)-1H-indol-3-yl)-3-(m-tolyl)propyl)piperidin-4-amine hydrochloride salt] | 8 | 2 | 4 | 4 | 2 | 4 | 1 | 4 | 8.5 | 4 | 2 | 2 | 16 | 4 | 16 | 4 | MIC [8, 28]: 2 µg/mL
Cc1cccc(C(CC(=O)Nc2ccc(CN)cc2)c2cn(CC3CCCCC3)c3ccccc23)c1.Cl (centres unmarked) [Compound 139, N-(4-(aminomethyl)phenyl)-3-(1-(cyclohexylmethyl)-1H-indol-3-yl)-3-(m-tolyl)propanamide hydrochloride salt] | 16 | > 512 | > 128 | 32 | 2 | > 128 | 2 | > 128 | 46 | 16 | 4 | 4 | > 128 | 4 | > 128 | 8 | –
